The source made the active and inactive calls. The rule behind the calls is not given here.
Legend:
[1] = molecular target: T1, von Hippel-Lindau disease tumor suppressor/Nuclear receptor subfamily 1 group I member 2 (Homo sapiens, UniProt O75469+P40337); test: PROTAC activity at PXR/VHL in human SNU-C4 HiBiT-PXR KI cell assessed as inhibition of LBD-VCB complex formation at 41.2 nM incubated for 24 hrs by TR-FRET assay; assay type: cell-based; conditions: 0.0412 µM
[2] = Cytotoxicity against human SNU-C4 HiBiT-PXR KI cell assessed as cell viability at 30 uM incubated for 24 hrs by celltiter-glo luminescent assay relative to control; assay type: functional; conditions: read-out: Activity
[3] = Cytotoxicity against human SNU-C4 HiBiT-PXR KI cell assessed as cell viability incubated for 24 hrs by celltiter-glo luminescent assay; assay type: functional
[4] = Cytotoxicity against human SNU-C4 HiBiT-PXR KI cell assessed as cell viability incubated for 72 hrs by celltiter-glo luminescent assay; assay type: functional
[5] = Cytotoxicity against human SNU-C4 HiBiT-PXR KI cell assessed as cell viability at 30 uM incubated for 72 hrs by celltiter-glo luminescent assay relative to control; assay type: functional; conditions: read-out: Activity
[6] = molecular target: T1, von Hippel-Lindau disease tumor suppressor/Nuclear receptor subfamily 1 group I member 2; test: PROTAC activity at N-terminal PXR/VHL in human SNU-C4 HiBiT-PXR KI cell assessed as PXR degradation upto 10 uM incubated at 24 hrs by Western blot analysis; assay type: cell-based
[7] = molecular target: T1, von Hippel-Lindau disease tumor suppressor/Nuclear receptor subfamily 1 group I member 2; test: PROTAC activity at PXR/VHL in human SNU-C4 HiBiT-PXR KI cell assessed as PXR degradation at 1 uM incubated for 8 hrs in presence of methyl (S)-3-(1-(2,5-dimethoxyphenyl)-5-methyl-1H-1,2,3-triazole-4-carboxamido)-4-(hexan-3-yloxy)benzoate by Western blot analysis; assay type: cell-based
[8] = molecular target: T1, von Hippel-Lindau disease tumor suppressor/Nuclear receptor subfamily 1 group I member 2; test: PROTAC activity at PXR/VHL in human SNU-C4 HiBiT-PXR KI cell assessed as PXR degradation at 1 uM incubated for 8 hrs in presence of VH032 by Western blot analysis; assay type: cell-based
[9] = molecular target: T1, von Hippel-Lindau disease tumor suppressor/Nuclear receptor subfamily 1 group I member 2; test: PROTAC activity at PXR/VHL in human SNU-C4 HiBiT-PXR KI cell assessed as PXR degradation at 1 uM incubated for 8 hrs in presence of MG132 by Western blot analysis; assay type: cell-based
[10] = molecular target: T1, von Hippel-Lindau disease tumor suppressor/Nuclear receptor subfamily 1 group I member 2; test: PROTAC activity at PXR/VHL in human SNU-C4 HiBiT-PXR KI cell assessed as PXR degradation at 1 uM incubated for 8 hrs in presence of MLN4924 by Western blot analysis; assay type: cell-based
[11] = molecular target: T2, Nuclear receptor subfamily 1 group I member 2 (Homo sapiens, UniProt O75469); test: Inhibition of PXR activation in human HepG2 cells transfected with CYP3A4 incubated for 24 hrs in presence of rifampicin; assay type: cell-based; conditions: hepg2, 24 h
T2 sequence (O75469 whole entry): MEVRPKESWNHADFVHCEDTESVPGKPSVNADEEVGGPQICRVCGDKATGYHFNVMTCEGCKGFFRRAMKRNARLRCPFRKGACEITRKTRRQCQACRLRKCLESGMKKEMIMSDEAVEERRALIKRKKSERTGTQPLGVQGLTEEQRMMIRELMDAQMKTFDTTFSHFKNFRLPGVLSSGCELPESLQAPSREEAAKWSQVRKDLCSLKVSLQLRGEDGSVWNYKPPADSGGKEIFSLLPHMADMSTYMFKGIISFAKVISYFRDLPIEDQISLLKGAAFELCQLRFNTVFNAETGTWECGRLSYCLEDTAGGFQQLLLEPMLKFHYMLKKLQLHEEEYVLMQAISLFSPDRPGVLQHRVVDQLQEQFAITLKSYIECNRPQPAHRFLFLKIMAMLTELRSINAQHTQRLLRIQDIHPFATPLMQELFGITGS

[12] = molecular target: T2, Nuclear receptor subfamily 1 group I member 2; test: Inhibition of PXR activation in human HepG2 cells transfected with CYP3A4 incubated for 24 hrs in presence of T0901317; assay type: cell-based; conditions: hepg2, 24 h
[13] = molecular target: T2, Nuclear receptor subfamily 1 group I member 2; test: Inhibition of PXR activation in human HepG2 cells transfected with CYP3A4 incubated for 24 hrs in presence of paclitaxel; assay type: cell-based; conditions: hepg2, 24 h
[14] = test system: HepG2; test: Reduction in basal PXR activity on CYP3A4 promoter in human HepG2 cells at 10 uM in absence of PXR agonist; assay type: functional, cell-based
[15] = molecular target: T2, Nuclear receptor subfamily 1 group I member 2; test: Inhibition of PXR activation in human SNU-C4 cells transfected with CYP3A4 at 10 uM incubated for 24 hrs in presence of paclitaxel; assay type: cell-based; conditions: snu-c4, 24 h
[16] = test system: SNU-C4; test: Effect on PXR mRNA level in human SNU-C4 cells at 10 uM incubated for 24 hrs in presence of paclitaxel by RT-qPCR analysis; assay type: functional, cell-based
[17] = test system: SNU-C4; test: Cytotoxicity against human SNU-C4 cells assessed as cell viability incubated for 72 hrs in presence of paclitaxel; assay type: functional
[18] = molecular target: von Hippel-Lindau disease tumor suppressor/Nuclear receptor subfamily 1 group I member 3 (Homo sapiens, UniProt Q14994+P40337); test: PROTAC activity at CAR/VHL in HEK293T cells assessed as CAR degradation at 0.001 to 100 uM incubated for 24 hrs; assay type: cell-based; conditions: dose 0.001-100 µM
[19] = molecular target: von Hippel-Lindau disease tumor suppressor/Vitamin D3 receptor (Homo sapiens) (UniProt P11473+P40337); test: PROTAC activity at VDR/VHL in HEK293T cells assessed as VDR degradation at 0.001 to 100 uM incubated for 24 hrs; assay type: cell-based; conditions: dose 0.001-100 µM
[20] = molecular target: von Hippel-Lindau disease tumor suppressor/Bile acid receptor (Homo sapiens) (UniProt Q96RI1+P40337); test: PROTAC activity at FXR/VHL in HEK293T cells assessed as FXR degradation at 0.001 to 100 uM incubated for 24 hrs; assay type: cell-based; conditions: dose 0.001-100 µM
[21] = molecular target: von Hippel-Lindau disease tumor suppressor/Oxysterols receptor LXR-alpha (Homo sapiens) (UniProt Q13133+P40337); test: PROTAC activity at LXRalpha/VHL in HEK293T cells assessed as LXRalpha degradation at 0.001 to 100 uM incubated for 24 hrs; assay type: cell-based; conditions: dose 0.001-100 µM
[22] = molecular target: von Hippel-Lindau disease tumor suppressor/Oxysterols receptor LXR-beta (Homo sapiens) (UniProt P55055+P40337); test: PROTAC activity at LXRbeta/VHL in HEK293T cells assessed as LXRbeta degradation at 0.001 to 100 uM incubated for 24 hrs; assay type: cell-based; conditions: dose 0.001-100 µM
[23] = molecular target: T1, von Hippel-Lindau disease tumor suppressor/Nuclear receptor subfamily 1 group I member 2; test: PROTAC activity at […] PXR/VHL in human SNU-C4 HiBiT-PXR KI cell assessed as PXR degradation incubated at 24 hrs by Western blot analysis; assay type: cell-based

T1 sequence (P40337 whole entry, one chain of several, the tested form may be a part): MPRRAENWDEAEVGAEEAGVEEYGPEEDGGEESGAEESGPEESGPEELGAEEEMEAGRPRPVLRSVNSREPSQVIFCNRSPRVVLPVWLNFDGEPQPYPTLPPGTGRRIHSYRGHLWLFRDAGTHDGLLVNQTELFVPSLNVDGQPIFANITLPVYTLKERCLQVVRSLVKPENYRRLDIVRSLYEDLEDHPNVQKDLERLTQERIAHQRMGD
Sequence of von Hippel-Lindau disease tumor suppressor/Oxysterols receptor LXR-alpha (Homo sapiens) (P40337 whole entry, looked up): as the sequence (P40337 whole entry, one chain of several, the tested form may be a part) above
Sequence of von Hippel-Lindau disease tumor suppressor/Oxysterols receptor LXR-alpha (Homo sapiens) (Q13133 whole entry, looked up): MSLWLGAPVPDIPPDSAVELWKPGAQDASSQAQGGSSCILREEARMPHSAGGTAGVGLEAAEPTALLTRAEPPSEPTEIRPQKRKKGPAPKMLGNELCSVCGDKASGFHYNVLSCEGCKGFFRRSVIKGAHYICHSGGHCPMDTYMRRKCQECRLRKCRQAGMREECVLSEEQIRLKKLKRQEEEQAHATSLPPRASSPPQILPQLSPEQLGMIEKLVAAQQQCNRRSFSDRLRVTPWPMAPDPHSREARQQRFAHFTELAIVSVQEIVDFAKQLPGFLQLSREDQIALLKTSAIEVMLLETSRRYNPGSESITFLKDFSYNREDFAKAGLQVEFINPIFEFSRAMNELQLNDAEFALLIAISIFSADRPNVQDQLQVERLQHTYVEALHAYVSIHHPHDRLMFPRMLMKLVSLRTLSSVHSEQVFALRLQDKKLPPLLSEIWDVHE
Sequence of von Hippel-Lindau disease tumor suppressor/Oxysterols receptor LXR-beta (Homo sapiens) (P40337 whole entry, looked up): as the sequence (P40337 whole entry, one chain of several, the tested form may be a part) above
Sequence of von Hippel-Lindau disease tumor suppressor/Oxysterols receptor LXR-beta (Homo sapiens) (P55055 whole entry, looked up): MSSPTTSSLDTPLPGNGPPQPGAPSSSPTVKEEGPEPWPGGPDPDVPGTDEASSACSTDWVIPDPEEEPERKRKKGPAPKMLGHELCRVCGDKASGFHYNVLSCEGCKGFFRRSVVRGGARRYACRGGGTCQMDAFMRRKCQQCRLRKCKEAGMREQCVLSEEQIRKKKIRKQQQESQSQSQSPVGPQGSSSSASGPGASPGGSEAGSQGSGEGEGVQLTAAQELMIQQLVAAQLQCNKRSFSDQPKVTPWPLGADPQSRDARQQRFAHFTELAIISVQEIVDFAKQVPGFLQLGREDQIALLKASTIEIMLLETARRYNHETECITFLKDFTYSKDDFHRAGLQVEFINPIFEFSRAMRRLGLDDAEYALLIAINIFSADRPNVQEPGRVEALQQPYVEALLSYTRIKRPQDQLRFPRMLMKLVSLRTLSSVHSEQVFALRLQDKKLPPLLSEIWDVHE
Sequence of von Hippel-Lindau disease tumor suppressor/Bile acid receptor (Homo sapiens) (P40337 whole entry, looked up): as the sequence (P40337 whole entry, one chain of several, the tested form may be a part) above
Sequence of von Hippel-Lindau disease tumor suppressor/Bile acid receptor (Homo sapiens) (Q96RI1 whole entry, looked up): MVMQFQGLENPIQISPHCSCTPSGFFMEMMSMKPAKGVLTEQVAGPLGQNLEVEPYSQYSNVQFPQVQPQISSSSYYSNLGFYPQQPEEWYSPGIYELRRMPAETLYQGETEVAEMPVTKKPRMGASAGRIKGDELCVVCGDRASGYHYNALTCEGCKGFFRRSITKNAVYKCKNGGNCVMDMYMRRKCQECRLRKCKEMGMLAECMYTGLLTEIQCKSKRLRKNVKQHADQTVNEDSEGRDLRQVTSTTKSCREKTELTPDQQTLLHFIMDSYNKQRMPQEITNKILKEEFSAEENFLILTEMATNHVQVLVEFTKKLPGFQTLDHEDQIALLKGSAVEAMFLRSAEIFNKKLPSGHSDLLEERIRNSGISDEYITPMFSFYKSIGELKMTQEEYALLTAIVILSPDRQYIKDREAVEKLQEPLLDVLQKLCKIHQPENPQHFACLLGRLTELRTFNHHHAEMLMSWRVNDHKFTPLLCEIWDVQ
Sequence of von Hippel-Lindau disease tumor suppressor/Vitamin D3 receptor (Homo sapiens) (P11473 whole entry, looked up): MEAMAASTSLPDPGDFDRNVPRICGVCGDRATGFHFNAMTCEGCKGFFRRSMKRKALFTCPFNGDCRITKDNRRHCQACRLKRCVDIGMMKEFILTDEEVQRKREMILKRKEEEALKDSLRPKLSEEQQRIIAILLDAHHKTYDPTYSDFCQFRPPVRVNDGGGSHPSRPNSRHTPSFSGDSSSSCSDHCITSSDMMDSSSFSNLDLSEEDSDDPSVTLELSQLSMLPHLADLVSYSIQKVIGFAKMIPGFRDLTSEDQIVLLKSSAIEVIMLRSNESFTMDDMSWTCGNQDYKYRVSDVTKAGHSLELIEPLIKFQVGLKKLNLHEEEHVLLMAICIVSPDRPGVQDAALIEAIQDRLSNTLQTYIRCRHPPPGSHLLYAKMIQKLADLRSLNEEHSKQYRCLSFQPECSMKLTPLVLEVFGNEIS
Sequence of von Hippel-Lindau disease tumor suppressor/Vitamin D3 receptor (Homo sapiens) (P40337 whole entry, looked up): as the sequence (P40337 whole entry, one chain of several, the tested form may be a part) above
Sequence of von Hippel-Lindau disease tumor suppressor/Nuclear receptor subfamily 1 group I member 3 (Q14994 whole entry): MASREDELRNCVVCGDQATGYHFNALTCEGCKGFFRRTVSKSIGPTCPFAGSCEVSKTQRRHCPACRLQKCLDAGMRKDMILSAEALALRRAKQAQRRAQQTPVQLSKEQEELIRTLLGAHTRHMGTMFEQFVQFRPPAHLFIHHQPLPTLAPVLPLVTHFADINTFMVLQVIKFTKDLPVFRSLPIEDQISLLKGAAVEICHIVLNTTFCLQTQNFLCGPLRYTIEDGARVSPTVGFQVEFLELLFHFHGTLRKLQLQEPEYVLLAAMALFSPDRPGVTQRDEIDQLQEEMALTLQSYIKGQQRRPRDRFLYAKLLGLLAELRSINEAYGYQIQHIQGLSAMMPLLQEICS
Sequence of von Hippel-Lindau disease tumor suppressor/Nuclear receptor subfamily 1 group I member 3 (P40337 whole entry): as the sequence (P40337 whole entry, one chain of several, the tested form may be a part) above

SMILES	viability at 30 µM [2] [%]	CC50 [3] [µM]	CC50 [4] [µM]	viability at 30 µM [5] [%]	Activity [6]	Activity [7]	Activity [8]	Activity [9]	Activity [10]	Activity [18]	Activity [19]	Activity [20]	Activity [21]	Activity [22]	other results
CC(=O)N[C@H](C(=O)N1C[C@@H](O)C[C@H]1C(=O)NCc1ccc(-c2scnc2C)cc1)C(C)(C)C															Activity [1]: Not Active
CCC[C@H](CC)Oc1ccc(C(=O)OC)cc1NC(=O)c1nnn(-c2cc(OC)c(OCCCCCCOCCOCC(=O)N[C@H](C(=O)N3C[C@H](O)C[C@H]3C(=O)NCc3ccc(-c4scnc4C)cc3)C(C)(C)C)cc2OC)c1C	102	> 30	> 30	105	Active	Not Active	Not Active	Not Active	Not Active	Not Active	inactive	inactive	inactive	inactive	inhibition (INH) [11]: Active; inhibition (INH) [12]: Active; inhibition (INH) [13]: Active; Activity [14]: Active; inhibition (INH) [15]: Active; Activity [16]: inactive; CC50 [17]: 9.53 µM
CCC[C@H](CC)Oc1ccc(C(C)(C)C)cc1NC(=O)c1nnn(-c2cc(OC)c(OCCCCCCOCCOCC(=O)N[C@H](C(=O)N3C[C@H](O)C[C@H]3C(=O)NCc3ccc(-c4scnc4C)cc3)C(C)(C)C)cc2OC)c1C	97.4	> 30	> 30	99.5	Active	Not Active	Not Active	Not Active	Not Active	Not Active	inactive	inactive	inactive	inactive	DC50 [23]: 0.0531 µM

Reference: ChEMBL document CHEMBL6127111, “First-in-Class Small Molecule Degrader of Pregnane X Receptor Enhances Chemotherapy Efficacy” (J Med Chem, 2024)
